Tested on: endogenous reactive oxygen species (ROS), primarily hydrogen peroxide (H2O2), in normal human epidermal keratinocyte (NHEK) cell cultures
Assay: Endogenous reactive oxygen species (ROS) level in NHEK cell cultures, dichlorodihydrofluorescein diacetate fluorescence
Assay type: cell-based
Conditions: overnight incubation, fluorescence at 5.5 hour time point, NHEK cells
Procedure: Specifically, NHEK cells were cultured and plated, followed by treatment with Resveratrol Ferulates at concentrations of about 10 μM, 25 μM, and 50 μM. As comparative examples, some NHEK cells were separated treated with resveratrol at a concentration of about 25 μM. Further as control examples, some NHEK cells were maintained without treatment with either Resveratrol Ferulates or resveratrol. Four samples of NHEK cells were provided for each treatment. After overnight incubation of the cell cultures, dichlorodihydrofluorescein diacetate was added thereinto. Dichlorodihydrofluorescein diacetate is a useful fluorogenic reagent for detecting reactive oxygen species in cells. Upon oxidation by the reactive oxygen species, dichlorodihydrofluorescein diacetate becomes the highly green fluorescent dichlorofluorescein, which can be readily detected by fluorescene spectroscopy. For example, a Gemini EM microplate spectrofluorometer commercially available from Molecular Devices at Sunnyvale, Calif. was employed to measure the fluorescence (Ex450, Em525) of the cell cultures at the 5.5 hour time point, which was used as an indication of the amount of reactive oxygen species (primarily H2O2) in the cells.

With Oc1ccc(C=Cc2cc(O)cc(O)c2)cc1 [resveratrol, 3,5,4′-trihydroxystilbene] the “average reduction in ROS level in comparison with the control samples” value (10 μM) was “about 62.0%” and the “average reduction in ROS level in comparison with the control samples” value (25 μM) was “about 69.5%”.
